Consider one compound from EP0574185B1, “PGE1 analogs” (NEWPHARMA INTERNATIONAL CORPORATION, priority 1992, dated 1993).

Data set [1] deals with rat uterus under estrous condition. Kind of data set: C1: effect on PGF2α induced in vitro contraction of rat uterus under estrous condition. The note with it: PGF2α 10^-8 M, nutrient solution 0,84. Here is the method: The experimental conditions were identical to those described in part A for the concentration-response curves without spontaneous contractions.
The uterus was allowed to equilibrate in a 10^-8 M PGF2α solution for 2 minutes, then the uterus was washed again during 15 minutes. This whole treatment was repeated twice.
Then, a known concentration of the test prostaglandin was added and no washing was carried out during the following 15 minutes. PGF2α (10^-8 M) was added, washing once after 2 minutes and then twice over a total time period of 15 minutes. The result was expressed as the relationship between the effect of PGF2α after the treatment with B-407 and the sum of the effect of PGF2α (mean of the three initial additions) and the effect of B-407 "per se". The recordings of the contractions and their quantitation were performed as described in (A).
* p < 0.05: Tested vs. nutrient solution by ANOVA and Scheffe. ** p < 0.02: Tested vs. nutrient solution by Student's-t-test. Ratio = Effect of PGF2α after B-407/(Effect of PG F2α before B-407 + Effect of B-407). S.E. = Standard Error
The frequency and magnitude of the responses were globally evaluated by calculating the total area recorded at a fixed time period as will be further explained. The areas under the curve of the recording paper, over 15 minutes periods, were cut and weighed both in the concentration-response curves and in the potentiating experiments.
The calibration was made by weighing a piece of paper which corresponded to a tension of 1 g at the working sensitivity along 2 minutes. Therefore, a relationship of area expressed in g/2 min was obtained and then the weights of the areas of the responses were transformed to unities of area. The results were expressed as the mean ± the standard error of the areas obtained. The statistical evaluation of the differences was carried out either by ANOVA or by Student's-t-test, as appropriate.

For the next data set, the system named is Swiss female mice. In words: Barbiturate sleeping time in mice. It is filed as in vivo. The note with it: 100 µg/kg,ip, 15 min before pentobarbital sodium 30 mg/kg i.p., n= 12. The protocol:
The effect of B-407 on the time of induction and time of duration of the barbiturate sleeping time was evaluated by determining the time of loss and recovery of the righting reflex. This was carried out in Swiss female mice weighing 20 g to 25 g.
Two groups of 12 mice each were used. One group was treated with B-407 (100 µg/kg, i.p.). Fifteen minutes later, pentobarbital sodium (30 mg/kg, i.p.) was administered. The time of onset (the loss of the righting reflex) and of duration (the elapsed time from the loss of the righting reflex up to its recovery from the barbiturate-induced sleeping) were determined. Full recovery of the righting reflex was assumed when the animal, placed on its back, could recover its normal position at least 3 times during one minute. The control mice group followed the same protocol, but received saline solution instead B-407. The results were expressed as the average ± standard error of each group and the statistical significance of the differences were evaluated by means of the Student's-t-test.

The subject of a further data set is anesthetized rat. Kind of data set: Blood pressure and heart rate in anesthetized rat. Type of data set: in vivo, male Wistar rats. The note with it: i.v.; for HR (Heart Rate): basal 440,8 ± 9,7; for Δ MBP (Mean Blood Pressure): basal MBP 120,9 ± 4,6, n= 6. Here is the method:
The acute effect of B-407 on the cardiovascular system was studied. After doses of 10 µg/kg, 30 µg/kg, and 100 µg/kg, administered intravenously (i.v.) the arterial blood pressure and heart rate were evaluated on male Wistar rats weighing 300 g to 350 g. Rats were anesthetized with 40 mg/kg, i.p., of sodium pentobarbital. The left jugular vein was cannulated by means of polyethylene tubing to allow the i.v. administration of drugs. The trachea was cannulated to facilitate ventilation and the right carotid artery was cannulated to record blood pressure and heart beat. A dose of 350 UI/kg, i.v., sodium heparin was administered. The catheter of the artery was connected to a pressure transducer attached to a Berger polygraph. The volume of the i.v. administrations was 0.4 ml/kg. The working protocol was as follows:
A steady-state recording was obtained over a 30 minutes time period. Then a dose of 0.5 µg/kg of noradrenaline followed by 0.5 µg/kg of isoproterenol were administered over 5 to 10 minutes. After 5 min of recording, increasing doses of B-407 were administered every 15 minutes. The mean arterial blood pressure (mm Hg) was obtained by calculating the average of the values of […]. The heart rate (beats/min) was obtained by counting the number of contractions by units of time.

The nature of data set [2]: Diarrheagenic effect in mice. Further details: species or system Swiss mice. The following applies: mouse, in vivo. The protocol: The diarrheagenic effect of the synthetic PGE1 analog B-407 was evaluated in Swiss mice. The effect of the intraperitoneal and intravaginal routes of administration were studied as follows:
Six groups of ten mice (25 to 30 g) each (5 ♂ and 5 ♀) were used. They received i.p. doses of 0; 1; 3; 10; 30 and 100 µg/kg of the test drug. The diarrheagenic response was evaluated on an "all-or-none" basis as described in section C.
A seven points dose-response curve was performed for B-407. Eight groups of six mice (18 to 25 g) each received doses of 0; 10; 18; 32; 56; 100; 160 and 250 µg/kg of B-407.
The intravaginal administration was made through a polyethylene catheter attached to a 1 ml syringe. This system allows the delivery of volumes of 10 to 15 µl.
The animals were evaluated in an "all-or-none" basis as the ratio of the number of animals with diarrhea over the total number of mice in the group. The median effective doses (ED50) with their fiducial limits and the statistics were performed according Litchfield and Wilcoxon [Eur. J. Pharmacol. 34, 105 (1975); J. Pharmacol. Exp. Ther., 96, 99 (1949)].

Another data set concerns Swiss male mice. Kind of data set: Motor activity in mice (rota-rod). The following applies: 100 µg/kg, i.p., 15 min prior to the test; vehicle 0/10. For orientation: The rotarod test checks motor coordination on a turning rod.

SMILES strings stand for the structures.

As a reminder, the ED50 is the dose at which the effect has come halfway, by size or by number of responders. The low end stands for greater potency, the high end for weaker potency. For `CCCCC(C)(O)C/C=C/[C@H]1[C@H](O)CC(=O)[C@@H]1CCCC/C=C/C(=O)OC` (mixture of isomers) [B-407, trans-Δ^2-15-deoxy-16-hydroxy-16-methyl PGE1 methyl ester], the “Ratio = Effect of PGF2α after B-407/(Effect of PG F2α before B-407 + Effect of B-407)” value in data set [1] (B-407 3x10^-7 M, p < 0.05) is reported as 2,06; in data set [1] (B-407 3x10^-8 M) it was 1,69; in data set [1] (B-407 3x10^-9 M) it was 1,29. Moreover, the Induction time in the data set on Swiss female mice (control 4,52 ± 0,22, p < 0,02) is reported as 3,75 ± 0,19 min. In addition, the Sleeping time in the data set with Swiss female mice (control 27,8 ± 3,10, n.s.) is given as 29,7 ± 2,91 min. Also, the Higher lasting time in the data set on anesthetized rat (10 µg/kg) is on record as 0,66 min; in the data set with anesthetized rat (30 µg/kg), 2,5 min; in the data set on anesthetized rat (100 µg/kg) it was 5,5 min. Also, the “HR (Heart Rate)” value in the data set on anesthetized rat (10 µg/kg) is given as 430,6 ± 7,2 Beats / min; with anesthetized rat (30 µg/kg), 420,7 ± 4,1 Beats / min; in the data set with anesthetized rat (100 µg/kg) it was 452,7 ± 16,7 Beats / min. Further, the “Δ MBP (Mean Blood Pressure)” value with anesthetized rat (10 µg/kg) was -11,0 ± 1,3 mm Hg; with anesthetized rat (30 µg/kg) it was -29,8 ± 3,8 mm Hg; in the data set on anesthetized rat (100 µg/kg), -47,7 ± 3,3 mm Hg. In addition, the median effective dose (ED50) in data set [2] (ip, confidence limits 1,95 to 8,65, n 10) was found to be 0.00412 mg/kg; in data set [2] (i.vag., confidence limits 27,4 to 124,9, n 6), 0.0583 mg/kg. Further, the “Fraction (animals fallen before 300 sec/total number of animals)” value in the data set on Swiss male mice is listed as 1/10.
